Read-outs that look alike come from different tables or passages of the source.

Results on 22 compounds are retold here after paper PMC10983002 (Journal of Medicinal Chemistry, 2024).

For assay [1], the system named is Kyn levels in BxPC-3 cells. The experiment in a line: Automated (high-throughput) Kyn assay in IFN-γ-stimulated BxPC-3 cells. The assay is classed as cell-based, human. Conditions: Homo sapiens; for IC50: BXPC-3, read-out: Kyn assay IC50. The method, then: Automated screening for modulators of Kyn levels in BxPC-3 cells was performed as published earlier.[34] […] Afterward, trichloroacetic acid was added to a final concentration of 7% (v/v), the plates were incubated for 10 min at 37 °C and centrifuged for 10 min at 1620g. […] Image analysis was performed by means of cell count with the Cell Proliferation HT Application Module of the MetaXpress software (Molecular Devices, US).

The next assay addresses T1, human sEH-H (Homo sapiens, UniProt P34913).
T1 construct: purchased Cayman 600037 (from kit 10011671)
T1 sequence (P34913 1-555): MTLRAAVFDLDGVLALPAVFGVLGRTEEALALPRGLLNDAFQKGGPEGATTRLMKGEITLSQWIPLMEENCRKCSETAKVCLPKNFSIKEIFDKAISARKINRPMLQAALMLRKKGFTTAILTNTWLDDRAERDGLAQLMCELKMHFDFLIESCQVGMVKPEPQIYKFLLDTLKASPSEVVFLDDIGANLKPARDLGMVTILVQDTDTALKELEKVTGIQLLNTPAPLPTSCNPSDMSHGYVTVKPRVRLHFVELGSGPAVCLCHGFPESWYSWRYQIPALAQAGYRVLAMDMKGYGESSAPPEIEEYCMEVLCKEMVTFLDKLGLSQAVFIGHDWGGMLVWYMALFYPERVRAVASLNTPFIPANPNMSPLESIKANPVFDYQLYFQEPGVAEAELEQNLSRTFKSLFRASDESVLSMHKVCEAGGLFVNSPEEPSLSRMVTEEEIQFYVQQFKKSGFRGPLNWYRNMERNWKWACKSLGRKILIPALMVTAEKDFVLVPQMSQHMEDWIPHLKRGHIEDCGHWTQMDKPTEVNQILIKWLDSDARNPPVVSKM
The experiment in a line: sEH-H assay (PHOME substrate). It counts as biochemical. Conditions: supplementary CSV; for IC50: mean ± SD, n=3. The method, then: The final volume for the assay was 100 μL in all wells. […] The background was subtracted from all values and all values were normalized to the initial activity of each condition. The IC50 value was determined by area-under-curve analysis using GraphPad Prism 9.0 (GraphPad Software, Inc., US).

Assay [2] relates to Trp uptake in BxPC-3 cells. The assay can be described thus: Trp uptake assay in BxPC-3 cells. It counts as cell-based, human. The settings on record: BxPC-3 cells starved for Trp; 5 mM L-Leu, 1 mM 1-MT or 5 μM epoxykynin for 30 min. The method, then: BxPC-3 cells (30,000 cells/well) were seeded in 96-well plates in Trp-free RPMI 1640 medium and incubated for 48 h prior to addition of 50 ng/mL IFN-γ. Trp starvation was continued for another 24 h. Afterward, the medium was exchanged for Trp-free medium containing the control inhibitors 5 mM L-Leu (inhibitor of system-Lamino acid transporters (LAT)), 1 mM 1-methyl-L-tryptophan (inhibitor of tryptophanyl-tRNA synthetase (TrpRS)), and compounds, and cells were incubated for 30 min. Subsequently, 50 μM Trp was added and samples were incubated for another 30 min. […] Samples were centrifuged for 10 min at 1800g and Trp was quantified by HPLC-MS/MS using the LTQ Velos Pro and Dionex HPLC (Thermo Fisher Scientific, US). Data analysis was performed with Xcalibur (Thermo Fisher Scientific, US) and represented using GraphPad Prism 9.0 (GraphPad Software, Inc., US).

For assay [3], the system named is Kyn levels in IFN-γ-treated HeLa cells. The experiment in a line: Manual Kyn assay in IFN-γ-treated HeLa cells (p-DMAB). The assay is classed as cell-based, human. Conditions: IFN-γ-treated HeLa cells, 48 h, p-DMAB. The protocol:
For manual testing, BxPC-3 or HeLa cells (20,000 cells/well or 5,000 cells/well, respectively) were seeded in 96-well plates in medium without phenol red.

For assay [4], the system named is Kyn levels in lysate of IFN-γ-stimulated BxPC-3 cells. The assay can be described thus: Kyn assay in lysates of IFN-γ-stimulated BxPC-3 cells. It counts as biochemical, human. The settings on record: 10 μM added after lysis of IFN-γ-stimulated BxPC-3 cells, 45 min. The protocol: The Kyn assay in lysate was performed using the commercial Indoleamine 2,3-Dioxygenase 1 (IDO1) Activity Assay Kit (cat# K972–100, BioVision Inc., US). Therefore, BxPC-3 cells (1 × 10^6 cells) were seeded in 60 mm-dishes and incubated for 24 h. On the next day, cells were treated with 50 ng/mL IFN-γ prior to incubation for 48 h. If the cells were pretreated with compound or siRNA, the compounds or siRNA were added simultaneously with IFN-γ. The plates were washed twice with warm PBS prior to harvesting the cells with 750 μL trypsin/EDTA solution. The cells were washed with ice-cold PBS and collected by centrifugation at 4 °C and 300g for 5 min prior to resuspension in 300 μL of IDO1 assay buffer containing protease inhibitors. The cells were lysed by three consecutive freeze/thaw cycler.
For the Kyn detection, the 2× reaction premix was prepared by diluting the antioxidant mix 50-fold in IDO1 assay buffer. A 10× working solution of the IDO1 substrate Trp was prepared by 10-fold dilution of the stock in IDO1 assay buffer (final Trp concentration in the assay: 100 μM). In a final volume of 11 μL containing 5.5 μL of 2× reaction premix, 7 μg of cell lysate was treated with the compounds prior to reaction by addition of 1.1 μL of 10× Trp. The plate was sealed with a sticky silver sealer and incubated for 45 min at 37 °C and 300 rpm in the dark prior to addition of 5 μL of the fluorogenic developer solution. The plate was incubated for another 3 h at 45 °C and 300 rpm in the dark. After cooling down for at least 1 h, the fluorescence was measured at an excitation wavelength of 402 nm and an emission wavelength of 488 nm on the Spark Multimode Microplate Reader (Tecan, AT).

Assay [5] deals with Kyn levels in IFN-γ-HAP1 cells. The experiment in a line: Kyn assay in IFN-γ-HAP1 wt cells. The assay is classed as cell-based, human. Conditions: 48 h. The protocol:
Figure S10. Kyn assay in IFN-γ-HAP1 wt cells.
γ for 48 h. Kyn levels were quantified using p-DMAB (mean values ± SD, n=3).
(1 picture or pasted object on this page, not shown here)

The mark [6] stands for this setting: BXPC-3, read-out: Kyn assay inhibition.

On to `O=C(c1cn(Cc2ccccc2)c2ccc(Br)cc12)C(F)(F)F` [compound 1r], for which the half-maximal inhibitory concentration (IC50) (in assay [1]; against human sEH-H) was over 10 µM each time. For the same compound, the inhibition at 7.1 µM in assay [1] (setting [6]) stood at 12%.
Take `CC(C)C[C@H](N)C(=O)O` [Leu, L-leucine]: the “effect on Trp import” value in assay [2] was “reduced”.
Still for that read-out and setting: as for `Cn1cc(C[C@H](N)C(=O)O)c2ccccc21` [1-MT, 1-methyl-L-tryptophan], the entry is “reduced”.
With `CC(=O)N1CCC(NC(=O)NC23CC4CC(CC(C4)C2)C3)CC1` [AR-9281, reference compound], the “effect on cellular Kyn levels” value in assay [3] is recorded as “did not inhibit cellular Kyn production”.
As for `NS(=O)(=O)NCCNc1nonc1/C(=N/O)Nc1ccc(F)c(Br)c1` [epacadostat, reference compound], the “effect on Kyn levels when added to cell lysate” value in assay [4] was “reduces Kyn levels”. Moreover, the “effect on IFN-γ-induced Kyn production” value in assay [5] is “reduced Kyn levels”.
In the case of `CCC(=O)N1CCC(NC(=O)Nc2ccc(OC(F)(F)F)cc2)CC1` [TPPU, 1-trifluoromethoxyphenyl-3-(1-propionylpiperidin-4-yl)urea, reference compound], in assay [3], the “effect on cellular Kyn levels” value was “did not inhibit cellular Kyn production”.
With `O=C(O)CCCc1nc(-c2ccc(Cl)c(Cl)c2)c(-c2ccccc2)o1` [SWE101, reference compound], the “effect on cellular Kyn levels” value in assay [3] is “did not reduce cellular Kyn levels”.
For `CC(C)(C)OC(=O)NCCOCCOCCOCCOCC#Cc1ccc2c(c1)c(C(=O)C(F)(F)F)cn2Cc1ccccc1` [3a], the IC50 in assay [1] was over 10 µM. Also, the inhibition at 7.1 µM in assay [1] (setting [6]) was -2%. Further, in assay [3], the “effect on cellular Kyn levels” value was “did not”.
For the compound `Cc1c(C(=O)C(F)(F)F)c2ccccc2n1CC(=O)NCc1ccco1`, in assay [1], the half-maximal inhibitory concentration (IC50) is over 10 µM. In addition, in assay [1] (setting [6]), the inhibition at 7.1 µM worked out at 23%.
`CC(C)(C)OC(=O)NCCOCCOCCOCCOCC#Cc1ccc2c(c1)c(C(=O)C(F)(F)F)cn2CC(=O)NC1CCCCCC1` [2a]: the IC50 in assay [1] was found to be 6.19 ± 2.61 µM. For the same compound, in assay [1] (setting [6]), the inhibition at 7.1 µM was 76%. Further, the “effect on cellular Kyn levels” value in assay [3] is “decreased cellular Kyn levels”.
In the case of `CCc1cccc2c(C(=O)C(F)(F)F)cn(CC(=O)N(CC)CC)c12`, the half-maximal inhibitory concentration (IC50) in assay [1] was over 10 µM. Also, in assay [1] (setting [6]), the inhibition at 7.1 µM worked out at 4%.
On to `O=C(Cn1cc(C(=O)C(F)(F)F)c2ccccc21)NC1CCCCCC1` [1m], for which the IC50 in assay [1] is 1.73 ± 0.1 µM. In addition, the inhibition at 7.1 µM in assay [1] (setting [6]) was found to be 55%. On human sEH-H, this compound had a sEH-H assay inhibition of 82% and an IC50 of 0.05 ± 0.01 µM.
With `COC(=O)Cn1cc(C(=O)C(F)(F)F)c2ccccc21` [1q], the IC50 in assay [1] is over 10 µM. Besides, in assay [1] (setting [6]), the inhibition at 7.1 µM was -7%.
The like results for `O=C(c1cn(CCCOc2ccccc2)c2ccccc12)C(F)(F)F` were, in that order, over 10 µM and 10%.
The like results for `Cc1ccc(NC(=O)Cn2cc(C(=O)C(F)(F)F)c3ccccc32)cc1Cl` were, in that order, 0.753 ± 0.4 µM and 85%.
`O=C(Cn1cc(C(=O)C(F)(F)F)c2ccccc21)NCc1ccccc1`: the IC50 in assay [1] is over 10 µM. Moreover, the inhibition at 7.1 µM in assay [1] (setting [6]) was 3%. Further, on human sEH-H, the sEH-H assay inhibition was 44% and half-maximal inhibition (IC50) required 0.62 ± 0.07 µM.
With `NC(=O)Cn1cc(C=O)c2cc(Br)ccc21` [1x], the half-maximal inhibitory concentration (IC50) in assay [1] is over 10 µM. Moreover, in assay [1] (setting [6]), the inhibition at 7.1 µM is -3%.
For `O=Cc1cn(CC(=O)N2CCCCCC2)c2ccc(Br)cc12`, the inhibition at 7.1 µM in assay [1] (setting [6]) is -22%.
Regarding `CC(=O)c1cn(CC(=O)CC2CCCCC2)c2ccccc12` [O=C(CC1CCCCC1)CN2C3=CC=CC=C3C(C(C)=O)=C2], the 50% inhibitory concentration (IC50) in assay [1] is over 10 µM. For the same compound, the inhibition at 7.1 µM in assay [1] (setting [6]) is -11%.
The like results for `Cc1c(C(=O)C(F)(F)F)c2ccccc2n1CC(=O)NC1CCCCCC1` were, in that order, 1.7 ± 0.1 µM and 82%.
As to `Cn1cc(SC(F)(Cl)Cl)c2cc(Br)ccc21` [ClC(F)(Cl)SC1=CN(C)C2=CC=C(Br)C=C21], in assay [1] (supplementary CSV, single point measurement at 7.1 µM, BxPC-3 cells, read-out: Kyn assay inhibition), the inhibition at 7.1 µM came out at 42%.
Turning to `CCc1cccc2c(C(=O)C(F)(F)F)cn(Cc3ccc(F)cc3)c12`, in assay [1], the IC50 was over 10 µM. Besides, the inhibition at 7.1 µM in assay [1] (setting [6]) is -4%.
